In the Deep4Chem optical property database:
One block for each compound: values may come before it.

Assay: solvent given as SMILES

SMILES: CC1(C)C(/C=C/C=C/C=C/C=C2/N(CCCCS(=O)(=O)[O-])c3ccc4ccccc4c3C2(C)C)=[N+](CCCCS(=O)(=O)[O-])c2ccc3ccccc3c21
fluorescence lifetime (in CC(C)=O): 0.87 ns
fluorescence lifetime (in CCO): 0.62 ns
fluorescence lifetime (in CO): 0.51 ns
fluorescence lifetime (in CS(C)=O): 0.97 ns
fluorescence lifetime (in ClC(Cl)Cl): 1.14 ns
fluorescence lifetime (in ClCCl): 0.91 ns
fluorescence lifetime (in O): 0.17 ns

SMILES: COc1ccc2c(=O)c3c([nH]c2c1)-c1cc(Cl)ccc1NC3(C)C
fluorescence lifetime (in C1CCOC1): 8.91 ns
fluorescence lifetime (in CC#N): 9.32 ns
fluorescence lifetime (in CCCCO): 9.93 ns
fluorescence lifetime (in CCCO): 9.91 ns
fluorescence lifetime (in CCO): 9.44 ns
fluorescence lifetime (in CCOC(C)=O): 8.48 ns
fluorescence lifetime (in CN(C)C=O): 10.4 ns
fluorescence lifetime (in CO): 9.17 ns
fluorescence lifetime (in CS(C)=O): 11.2 ns
fluorescence lifetime (in Cc1ccccc1): 7.94 ns
fluorescence lifetime (in ClC(Cl)(Cl)Cl): 5.41 ns
fluorescence lifetime (in ClCCl): 9.85 ns
fluorescence lifetime (in O): 6.93 ns
fluorescence lifetime (in c1ccccc1): 8.01 ns

SMILES: CCc1c(C)[nH]c(C2=[N+]3C(=Cc4c(C)cc(C)n4[B-]3(F)F)c3ccccc32)c1C
fluorescence lifetime (in C1CCOC1): 4.41 ns
fluorescence lifetime (in CC#N): 5.55 ns
fluorescence lifetime (in CCCCCC): 7.03 ns
fluorescence lifetime (in CO): 5.6 ns
fluorescence lifetime (in Cc1ccccc1): 5.9 ns
fluorescence lifetime (in ClCCl): 4.93 ns

SMILES: CC(C)(C)c1ccc2c(c1)c1cc(C(C)(C)C)ccc1n2-c1ccc(C(=CC#N)c2ccc(-n3c4ccc(C(C)(C)C)cc4c4cc(C(C)(C)C)ccc43)cc2)cc1
fluorescence lifetime (in Cc1ccccc1): 3.86 ns

SMILES: c1ccc(-c2nnc(-c3ccc(N4c5ccccc5Oc5ccccc54)cc3)o2)cc1
fluorescence lifetime (in Cc1ccccc1): 11 ns
fluorescence lifetime (in c1ccc(-n2c(-c3c(-n4c5ccccc5c5ccccc54)cccc3-n3c4ccccc4c4ccccc43)nc3ccccc32)cc1): 4.9 ns

SMILES: COc1ccc(-c2ccc(-c3ccc(C#N)s3)s2)cc1
fluorescence lifetime (in C1CCCCC1): 0.23 ns
fluorescence lifetime (in C1COCCO1): 0.38 ns
fluorescence lifetime (in CC#N): 0.97 ns
fluorescence lifetime (in CC(C)O): 0.89 ns
fluorescence lifetime (in CCCCO): 0.91 ns
fluorescence lifetime (in CCO): 0.93 ns
fluorescence lifetime (in CCOC(C)=O): 0.44 ns
fluorescence lifetime (in CN(C)C=O): 1.44 ns
fluorescence lifetime (in CO): 1.06 ns
fluorescence lifetime (in CS(C)=O): 1.76 ns
fluorescence lifetime (in Cc1ccccc1): 0.34 ns
fluorescence lifetime (in ClC(Cl)Cl): 0.6 ns
fluorescence lifetime (in ClCCl): 0.74 ns
fluorescence lifetime (in O): 0.91 ns

SMILES: CCCCCCCCC1(CCCCCCCC)c2ccccc2-c2ccc(N(c3ccc(-n4c5ccccc5c5ccccc54)cc3)c3ccc4c(c3)C(CCCCCCCC)(CCCCCCCC)c3ccccc3-4)cc21
fluorescence lifetime (in C1CCOC1): 1.8 ns
fluorescence lifetime (in CC#N): 1.8 ns
fluorescence lifetime (in CC(C)=O): 1.75 ns
fluorescence lifetime (in CCCCCC): 1.68 ns
fluorescence lifetime (in CCCCOCCCC): 1.78 ns
fluorescence lifetime (in CCN(CC)CC): 1.69 ns
fluorescence lifetime (in CCOC(C)=O): 1.66 ns
fluorescence lifetime (in CCOCC): 1.97 ns
fluorescence lifetime (in CN(C)C=O): 1.87 ns
fluorescence lifetime (in Cc1ccccc1): 1.75 ns
fluorescence lifetime (in ClCCl): 1.62 ns

Next, values leading:

fluorescence lifetime (in ClCCl): 3.4 ns
SMILES: CC1=C(c2ccccc2)C(C)=[N+]2C1=C(c1c(-c3ccccn3)nc3ccccn13)c1c(C)c(-c3ccccc3)c(C)n1[B-]2(F)F

fluorescence lifetime (in CCCCCC): 3.1 ns
fluorescence lifetime (in ClCCl): 3.4 ns
SMILES: CC(C)[Si](C#Cc1ccc(C#C[Si](C(C)C)(C(C)C)C(C)C)c2nc3cc4c(cc3nc12)[C@H]1c2ccccc2[C@@H]4c2ccccc21)(C(C)C)C(C)C

fluorescence lifetime (in ClCCl): 1.6 ns
SMILES: C[Si]1(C)c2cc(-c3ccccc3)ccc2C=Cc2ccc(-c3ccccc3)cc21

fluorescence lifetime (in C1CCOC1): 5.77 ns
fluorescence lifetime (in CCCCCC): 6.26 ns
SMILES: COc1cccc(OC)c1C1=C2C(C)=CC(C)=[N+]2[B-](F)(F)n2c(C)cc(C)c21

fluorescence lifetime (in O): 17.1 ns
SMILES: CC(=O)Nc1ccc2c(c1)c(=O)c1ccccc1n2CCCCCC(=O)O

fluorescence lifetime (in C1CCCCC1): 10.4 ns
fluorescence lifetime (in CCCCCO): 16 ns
fluorescence lifetime (in CCCCO): 12.6 ns
fluorescence lifetime (in CCCO): 11.9 ns
fluorescence lifetime (in CCO): 11.7 ns
fluorescence lifetime (in CO): 11.2 ns
SMILES: ClC(Cl)=C1c2ccccc2C(C2(Cl)c3ccccc3C(=C(Cl)Cl)c3ccccc32)c2ccccc21 (centres undefined)

fluorescence lifetime (in ClC(Cl)Cl): 1.7 ns
SMILES: C(#Cc1ccc(C#Cc2ccc(C#Cc3ccccc3)cc2)cc1)c1ccccc1

fluorescence lifetime (in CC#N): 5.21 ns
fluorescence lifetime (in CCOC(C)=O): 3.84 ns
fluorescence lifetime (in CN(C)C=O): 6.02 ns
fluorescence lifetime (in CS(C)=O): 6.76 ns
fluorescence lifetime (in c1ccccc1): 1.63 ns
SMILES: CCOC(=O)CN(CC(=O)OCC)c1ccc(-c2cc(-c3ccccn3)nc(-c3ccccn3)c2)cc1
